Results: patent publication US20210070735A1, “RIP1 INHIBITORY COMPOUNDS AND METHODS FOR MAKING AND USING THE SAME” (Rigel Pharmaceuticals, Inc., priority 2019, published 2021)

How the values were obtained:
murine RIP1 = target: T1, murine RIP1 (Mus musculus, UniProt Q60855); test: L929 cell necroptosis assay (TNFa + zVAD, CellTiter-Glo); type: cell-based
T1 construct: U937 and L929 cells were obtained from the American Type Culture Collection; host or cells: L929
T1 sequence (Q60855 1-656): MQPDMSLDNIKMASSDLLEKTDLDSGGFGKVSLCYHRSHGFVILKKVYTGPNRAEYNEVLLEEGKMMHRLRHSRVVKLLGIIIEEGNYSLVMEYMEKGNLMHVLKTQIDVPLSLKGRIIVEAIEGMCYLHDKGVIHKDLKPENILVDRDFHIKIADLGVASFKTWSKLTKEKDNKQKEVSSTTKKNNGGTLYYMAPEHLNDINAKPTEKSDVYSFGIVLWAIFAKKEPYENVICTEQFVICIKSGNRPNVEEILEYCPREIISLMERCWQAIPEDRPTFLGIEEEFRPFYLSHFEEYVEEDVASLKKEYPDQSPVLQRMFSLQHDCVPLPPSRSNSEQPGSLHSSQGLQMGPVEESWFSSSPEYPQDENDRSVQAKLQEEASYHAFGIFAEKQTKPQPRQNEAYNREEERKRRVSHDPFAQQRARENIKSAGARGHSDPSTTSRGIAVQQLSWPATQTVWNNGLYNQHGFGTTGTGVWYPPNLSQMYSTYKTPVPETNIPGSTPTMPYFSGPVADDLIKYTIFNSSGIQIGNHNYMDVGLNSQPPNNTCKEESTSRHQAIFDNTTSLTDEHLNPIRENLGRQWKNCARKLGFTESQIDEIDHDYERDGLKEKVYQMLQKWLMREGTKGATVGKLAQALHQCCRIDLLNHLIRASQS
Method: (§1) In this example, U937 and L929 cells were exposed to compounds of the present disclosure and a cell necroptosis assay was conducted to evaluate the compounds' activity against human RIP1 and murine RIP1.
(§2) U937 and L929 cells were obtained from the American Type Culture Collection (Manassa, Va., USA). Both cells were maintained in logarithmic growth phase in complete RPMI 1640 media (Sigma, ST Louis, Mo., USA) supplemented with 10% fetal bovine serum (Sigma, ST Louis, Mo., USA) at 37° C. with 5% CO2. For necroptosis assay, L929 cells were plated for 18 h in 100 µL/well medium at 10K cells/well in Costar 96-well black clear-bottom plates (Fisher Scientific, Hampton, N.H., USA); U937 cells were plated on the day of the assay in 50 µL/well medium containing 60 uM zVAD-fmk (Lonza, Basel, Switzerland) at 50K cells/well. Medium from L929 cells were removed from the 96-well plates and replaced with 50 µL/well new medium containing 40 uM zVAD-fmk. Each compound of the present disclosure evaluated in this example was serially diluted in DMSO from 2.5 mM in 4-fold dilutions, and then diluted 1:125 in complete medium. 50 µL/well 2× of the compound was then added to the cells in the plates. The cells were pre-incubated with the compound for 1 hour at 37° C. with 5% CO2 and before addition of 10 µL/well 11×TNFa (Peprotech, Rocky Hill, N.J., USA) to give a final concentration of 2 ng/mL for TNFa. The relative amount of necroptosis cells was determined by luminescent using a Wallac Victor2 Luminometer (PerkinElmer, Waltham, Mass., USA) and a CellTiter-Glo® Luminescent Cell Viability Reagent Assay (Promega, Madison, Wis., USA) added per manufacturer instructions after 18 hours of TNFa stimulation at 37° C. with 5% CO2.Results from this example are summarized in Table 2. This example establishes that embodiments of the compounds described herein have unexpectedly potent activity against human RIP1 and murine RIP1, which allows their assessment in in vivo mouse models of disease.

RIPK1 = target: T2, RIPK1 (Homo sapiens, UniProt Q13546); test: RIPK1 ADP-Glo biochemical kinase assay; conditions: 30 min at 30° C.
T2 sequence (Q13546 1-671): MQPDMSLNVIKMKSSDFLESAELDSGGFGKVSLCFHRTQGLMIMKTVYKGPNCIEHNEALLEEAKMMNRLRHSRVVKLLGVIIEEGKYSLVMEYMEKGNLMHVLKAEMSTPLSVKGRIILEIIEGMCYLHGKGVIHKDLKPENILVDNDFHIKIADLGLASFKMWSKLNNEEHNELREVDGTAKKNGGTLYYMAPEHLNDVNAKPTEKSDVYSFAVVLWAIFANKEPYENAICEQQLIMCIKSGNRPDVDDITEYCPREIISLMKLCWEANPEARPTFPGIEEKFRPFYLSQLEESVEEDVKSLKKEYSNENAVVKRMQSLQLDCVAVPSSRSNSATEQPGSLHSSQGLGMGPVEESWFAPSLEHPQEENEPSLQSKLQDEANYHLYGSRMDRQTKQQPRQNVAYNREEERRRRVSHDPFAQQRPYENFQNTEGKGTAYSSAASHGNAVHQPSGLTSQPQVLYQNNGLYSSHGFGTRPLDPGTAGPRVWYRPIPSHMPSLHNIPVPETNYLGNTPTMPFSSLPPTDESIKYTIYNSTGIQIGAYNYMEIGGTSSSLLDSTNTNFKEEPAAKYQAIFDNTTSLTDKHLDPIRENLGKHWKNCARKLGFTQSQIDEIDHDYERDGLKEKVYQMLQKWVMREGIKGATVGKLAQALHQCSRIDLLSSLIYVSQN
Method: The final reaction volume was 5.0 μl.
Adding 5 μl of ADP-Glo™ terminated the reaction.

human RIP1 = target: T3, human RIP1 (Homo sapiens, UniProt Q13546); test: U937 cell necroptosis assay (TNFa + zVAD, CellTiter-Glo); type: cell-based; conditions: U937 Zvad TNF CTG Recovery, U937 cells, TNFa 2 ng/mL + zVAD-fmk, 18 hours
T3 construct: U937 and L929 cells were obtained from the American Type Culture Collection; host or cells: U937
T3 sequence (Q13546 1-671): T2 sequence (Q13546 1-671)
Method: as §1, §2

Compound	IC50 (RIPK1)	IC50 (murine RIP1)	IC50 (human RIP1)
CN1C(=O)C(NC(=O)c2n[nH]c(Cc3ccccc3)n2)CCc2ccc(C#CC3(O)COC3)cc21 (racemic) [Compound I-16, (±)-5-Benzyl-N-(8-((3-hydroxyoxetan-3-yl)ethynyl)-1-methyl-2-oxo-2,3,4,5-tetrahydro-1H-benzo[b]azepin-3-yl)-1H-1,2,4-triazole-3-carboxamide]	229 nM	150 nM	8.4 nM
CN1C(=O)C(NC(=O)c2n[nH]c(Cc3ccccc3)n2)CCc2ccc(C#Cc3ccncc3)cc21 (racemic) [Compound I-19, (±)-5-Benzyl-N-(1-methyl-2-oxo-8-(pyridin-4-ylethynyl)-2,3,4,5-tetrahydro-1H-benzo[b]azepin-3-yl)-1H-1,2,4-triazole-3-carboxamide]	42.7 nM	10 nM	3.4 nM
CN1C(=O)C(NC(=O)n2cc(Cc3ccccc3)cn2)CCc2ccc(N3CC4(CCOCC4)C3)cc21 (racemic) [Compound I-23, (±)-4-Benzyl-N-(1-methyl-2-oxo-8-(7-oxa-2-azaspiro[3.5]nonan-2-yl)-2,3,4,5-tetrahydro-1H-benzo[b]azepin-3-yl)-1H-pyrazole-1-carboxamide]	61.2 nM	212 nM	1.7 nM
CN1C(=O)C(NC(=O)c2cc(Oc3ccccc3)ccn2)CCc2ccc(C#CC(C)(C)O)cc21 (racemic) [Compound I-24, (±)-N-(8-(3-Hydroxy-3-methylbut-1-yn-1-yl)-1-methyl-2-oxo-2,3,4,5-tetrahydro-1H-benzo[b]azepin-3-yl)-4-phenoxypicolinamide]	58.1 nM	13 nM	1.9 nM
CN1C(=O)C(NC(=O)c2cc(Oc3ccccc3)ccn2)CCc2ccc(CN3CCN(c4ccncc4)CC3)cc21 (racemic) [Compound I-25, (±)-N-(1-Methyl-2-oxo-8-((4-(pyridin-4-yl)piperazin-1-yl)methyl)-2,3,4,5-tetrahydro-1H-benzo[b]azepin-3-yl)-4-phenoxypicolinamide]	68.9 nM	37100 nM	278 nM
CN1C(=O)C(NC(=O)c2cc(Oc3ccccc3)ccn2)CCc2ccc(N3CCC4(CCOCC4)CC3)cc21 (racemic) [Compound I-27, (±)-N-(1-Methyl-2-oxo-8-(3-oxa-9-azaspiro[5.5]undecan-9-yl)-2,3,4,5-tetrahydro-1H-benzo[b]azepin-3-yl)-4-phenoxypicolinamide]	46.4 nM	641 nM	4.8 nM
[2H]C([2H])([2H])N1C(=O)C(NC(=O)c2cc(Oc3ccccc3)ccn2)CCc2ccc(N3CC4(CCOCC4)C3)cc21 (racemic) [Compound I-29, (±)-N-(1-(Methyl-d3)-2-oxo-8-(7-oxa-2-azaspiro[3.5]nonan-2-yl)-2,3,4,5-tetrahydro-1H-benzo[b]azepin-3-yl)-4-phenoxypicolinamide]	41.3 nM	1420 nM	6.3 nM
CN1C(=O)C(NC(=O)c2cc(Oc3ccccc3)ccn2)CCc2ccc(N3CC4(CCCCC4)C3)cc21 (racemic) [Compound I-30, (±)-N-(1-Methyl-2-oxo-8-(2-azaspiro[3.5]nonan-2-yl)-2,3,4,5-tetrahydro-1H-benzo[b]azepin-3-yl)-4-phenoxypicolinamide]	603 nM	1170 nM	16.2 nM
CN1C(=O)C(NC(=O)c2cc(Oc3ccccc3)ccn2)CCc2ccc(N3CC4(CCOCC4)C3)cc21 (racemic) [Compound I-31, (±)-N-(1-Methyl-2-oxo-8-(7-oxa-2-azaspiro[3.5]nonan-2-yl)-2,3,4,5-tetrahydro-1H-benzo[b]azepin-3-yl)-4-phenoxypicolinamide]	54 nM	1680 nM	17.6 nM

These reach a lower IC50 (RIPK1). Values come first.

IC50 (RIPK1)	Compound	IC50 (murine RIP1)	IC50 (human RIP1)
39.2 nM	CN1C(=O)[C@@H](NC(=O)c2n[nH]c(Cc3ccccc3)n2)CCc2ccc(C#CC(C)(C)O)cc21 [Compound I-10, (S)-5-Benzyl-N-(8-(3-hydroxy-3-methylbut-1-yn-1-yl)-1-methyl-2-oxo-2,3,4,5-tetrahydro-1H-benzo[b]azepin-3-yl)-1H-1,2,4-triazole-3-carboxamide]	37.8 nM	1.7 nM
37 nM	CN1C(=O)C(NC(=O)c2n[nH]c(Cc3ccccc3)n2)CCc2ccc(C#Cc3ccccn3)cc21 (racemic) [Compound I-20, (±)-5-Benzyl-N-(1-methyl-2-oxo-8-(pyridin-2-ylethynyl)-2,3,4,5-tetrahydro-1H-benzo[b]azepin-3-yl)-1H-1,2,4-triazole-3-carboxamide]	8.5 nM	3.8 nM
36.6 nM	CN1C(=O)[C@@H](NC(=O)c2n[nH]c(Cc3ccccc3)n2)CCc2ccc(N3CC4(CCOCC4)C3)cc21 [Compound I-17, (S)-5-Benzyl-N-(1-methyl-2-oxo-8-(7-oxa-2-azaspiro[3.5]nonan-2-yl)-2,3,4,5-tetrahydro-1H-benzo[b]azepin-3-yl)-1H-1,2,4-triazole-3-carboxamide]	229 nM	3.9 nM
33.4 nM	CN1C(=O)[C@@H](NC(=O)c2cc(Oc3ccccc3)ccn2)CCc2ccc(-c3ccc(C#CC(C)(C)O)nc3)cc21 [Compound I-2, (S)—N-(8-(6-(3-hydroxy-3-methylbut-1-yn-1-yl)pyridin-3-yl)-1-methyl-2-oxo-2,3,4,5-tetrahydro-1H-benzo[b]azepin-3-yl)-4-phenoxypicolinamide]	142 nM	2 nM
32.2 nM	[2H]C([2H])([2H])N1C(=O)C(NC(=O)c2cc(Oc3ccccc3)ccn2)CCc2ccc(C#CC(C)(C)O)cc21 (racemic) [Compound I-28, (±)-N-(8-(3-Hydroxy-3-methylbut-1-yn-1-yl)-1-(methyl-d)-2-oxo-2,3,4,5-tetrahydro-1H-benzo[b]azepin-3-yl)-4-phenoxypicolinamide]	20.9 nM	2.4 nM
23.4 nM	CN1C(=O)[C@@H](NC(=O)n2cc(Cc3ccc(F)cc3)cn2)CCc2ccc(C#CC3(O)COC3)cc21 [Compound I-1, (S)-4-(4-fluorobenzyl)-N-(8-((3-hydroxyoxetan-3-yl)ethynyl)-1-methyl-2-oxo-2,3,4,5-tetrahydro-1H-benzo[b]azepin-3-yl)-1H-pyrazole-1-carboxamide]	2.4 nM	0.3 nM
